The values that follow come from patent US20070122414A1, “Surface marker-directed cancer therapeutics” (Aurelium BioPharma Inc., priority 2005, published 2007).

The assay has as its system SKOV3 ovarian tumor cells. The assay is described as follows: SKOV3 tumor xenograft in nude mice, relative tumor volume (Example 1). The settings on record: SKOV3 tumors in nude mice; intravenous. Format: in vivo. The procedure: Starting on the first day of treatment, tumor growth was measured by […], and the volume of the xenograft was monitored every 4 days. […] Mice were then treated with vimentin-directed therapeutics. […] Taxol was obtained commercially from Sigma Corp. (St. Louis, Mo.).
All treatments were introduced by intravenous administration. Mice were then sacrificed and tumors excised for relative volume determinations.

For the compound `CC(=O)O[C@H]1C(=O)[C@@]2(C)[C@H]([C@H](OC(=O)c3ccccc3)[C@]3(O)C[C@H](OC(=O)[C@H](O)[C@@H](NC(=O)c4ccccc4)c4ccccc4)C(C)=C1C3(C)C)[C@]1(OC(C)=O)CO[C@@H]1C[C@@H]2O` [taxol], the “tumor size/volume relative to other treatment groups” value is “smaller than tumors in mice treated with vehicle or isotypic control, but not as small as the tumors isolated from mice treated with anti-vimentin antibodies and taxol together”.
